Experimental data from ChEMBL document CHEMBL1208673, “CoMFA and CoMSIA 3D-QSAR studies on quionolone caroxylic acid derivatives inhibitors of HIV-1 integrase” (Eur J Med Chem, 2010).

Biological target: Human immunodeficiency virus type 1 integrase (Human immunodeficiency virus 1, UniProt Q7ZJM1)
Test: Inhibition of HIV-1 integrase

Sequence of Human immunodeficiency virus type 1 integrase (Q7ZJM1 whole entry): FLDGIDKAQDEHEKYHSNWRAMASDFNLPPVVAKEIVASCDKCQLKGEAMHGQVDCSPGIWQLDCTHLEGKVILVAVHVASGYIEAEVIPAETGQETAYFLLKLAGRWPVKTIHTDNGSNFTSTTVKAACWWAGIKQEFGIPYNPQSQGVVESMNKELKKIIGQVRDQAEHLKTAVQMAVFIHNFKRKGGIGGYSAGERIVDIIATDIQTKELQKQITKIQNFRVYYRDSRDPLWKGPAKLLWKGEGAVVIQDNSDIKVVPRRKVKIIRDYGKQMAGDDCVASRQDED

IC50 | SMILES
8.91 nM | COc1cc2c(cc1Cc1cccc(Cl)c1F)c(=O)c(C(=O)O)cn2CCO
31.6 nM | O=C(O)Cn1cc(C(=O)O)c(=O)c2cc(Cc3cccc(Cl)c3Cl)ccc21
69.2 nM | O=C(O)c1c[nH]c2ccc(Cc3cccc(Cl)c3Cl)cc2c1=O
